Test system: L. major lysate proteins
Experiment: Multitargeted bead mixture chemoproteomics, single concentration competition, proteome-wide
Assay type: binding
Conditions: for fold change: vehicle control = 1

NCCCNc1ccc(C(=O)NC(CCC(=O)O)C(=O)O)cc1 (stereo not drawn) [compound 7]
fold change (protein LMJF.15.0040 HYPOTHETICAL PROTEIN, CONSERVED (Possible lysine decarboxylase, putative)): 0.73 | fold change vs vehicle control (protein LMJF.15.0690 HY[…], CONSERVED): 1.02 | fold change (protein LMJF.15.1010 GLUTAMATE DEHYDROGENASE): 1.04 | fold change (protein LMJF.15.1190 HY[…], CONSERVED (cyclic nucleotide-binding domain containing protein, putative)): 1.08 | fold change vs vehicle control (protein LMJF.16.0520 HY[…], CONSERVED): 1.02 | fold change vs vehicle control (protein LMJF.16.0540 ASPARTATE CARBAMOYLTRANSFERASE, PUTATIVE): 0.99 | fold change relative to vehicle control (protein LMJF.16.0760, TRANSALDOLASE, PUTATIVE): 0.99 | fold change vs vehicle control (protein LMJF.16.0940 DYNEIN LIGHT CHAIN, PUTATIVE): 1.11 | fold change relative to vehicle control (protein LMJF.16.1180, COATOMER DELTA SUBUNIT-LIKE PROTEIN): 1.2 | fold change relative to vehicle control (protein LMJF.16.1320, […], PUTATIVE): 1.34 | fold change relative to vehicle control (protein LMJF.16.1420, HY[…], CONSERVED): 1.05 | fold change relative to vehicle control (protein LMJF.17.0081, […] 1-ALPHA): 1.09 | fold change relative to vehicle control (protein LMJF.18.0270, GLYCOGEN SYNTHASE KINASE, PUTATIVE): 0.98 | fold change (protein LMJF.18.0580 P[…]-COA HYDRATASE, PUTATIVE): 1.04 | fold change relative to vehicle control (protein LMJF.18.0680, CITRATE SYNTHASE, PUTATIVE): 1.06 | fold change vs vehicle control (protein LMJF.18.1010 DYNEIN LIGHT CHAIN 2B, CYTOPLASMIC, PUTATIVE): 1.15 | fold change vs vehicle control (protein LMJF.18.1210 PROLYL-TRNA SYNTHETASE, PUTATIVE,BI[…]-TRNA SYNTHETASE, PUTATIVE): 1.03 | fold change vs vehicle control (protein LMJF.18.1370 HEAT SHOCK PROTEIN, PUTATIVE): 1.14 | fold change (protein LMJF.19.0200 ADP,ATP CARRIER PROTEIN 1, MIT[…], PUTATIVE): 1.08 | fold change vs vehicle control (protein LMJF.19.1120 […]-ATP-ASE SUBUNIT, PUTATIVE): 1.07 | fold change vs vehicle control (protein LMJF.19.1160 HYPOTHETICAL PROTEIN, CONSERVED): 0.99 | fold change vs vehicle control (protein LMJF.19.1560 INOSINE-5'-MONOPHOSPHATE DEHYDROGENASE): 0.97 | fold change relative to vehicle control (protein LMJF.19.1620, POTASSIUM VOLTAGE-GATED CHANNEL, PUTATIVE): 1.12 | fold change vs vehicle control (protein LMJF.20.1280 SMALL MYRISTOYLATED PROTEIN 4, PUTATIVE): 0.92 | fold change (protein LMJF.21.0810 METHIONYL-TRNA SYNTHETASE, PUTATIVE): 0.87 | fold change (protein LMJF.21.1450 ARGININE N-METHYLTRANSFERASE, TYPE II, PUTATIVE): 1.06 | fold change vs vehicle control (protein LMJF.21.1830 […] 5 SUBUNIT, PUTATIVE,20S […] ALPHA 5, (PUTATIVE)): 1.01 | fold change (protein LMJF.22.0230 AMINO ACID PERMEASE, PUTATIVE): 1.14 | fold change vs vehicle control (protein LMJF.22.0570 […] SUBUNIT 1, PUTATIVE): 1.04 | fold change vs vehicle control (protein LMJF.22.0730 HYPOTHETICAL PROTEIN, CONSERVED): 0.96 | fold change (protein LMJF.22.0770 NADH-CYTOCHROME B5 REDUCTASE, PUTATIVE): 0.85 | fold change relative to vehicle control (protein LMJF.23.0020, HYPOTHETICAL PROTEIN, CONSERVED): 1.99 | fold change relative to vehicle control (protein LMJF.23.0040, PEROXIDOXIN): 0.99 | fold change relative to vehicle control (protein LMJF.23.0080, HYPOTHETICAL PROTEIN, CONSERVED): 0.99 | fold change (protein LMJF.23.0210 ATP-BINDING CASSETTE PROTEIN SUBFAMILY C, MEMBER 1, PUTATIVE): 1.03 | fold change (protein LMJF.23.0370 CYTOCHROME C OXIDASE SUBUNIT 10, PUTATIVE): 0.97 | fold change relative to vehicle control (protein LMJF.23.0540, ACETYL-COA SYNTHETASE, PUTATIVE): 1.01 | fold change vs vehicle control (protein LMJF.23.0560 KINESIN, PUTATIVE): 0.91 | fold change vs vehicle control (protein LMJF.23.1410 HY[…], CONSERVED): 1.12 | fold change relative to vehicle control (protein LMJF.24.0070, HY[…], CONSERVED): 1.03 | fold change (protein LMJF.24.0140 ANKYRIN/TPR REPEAT PROTEIN): 0.93 | fold change (protein LMJF.24.0400 HYPOTHETICAL PROTEIN, CONSERVED (TPR repeat, putative)): 0.96 | fold change relative to vehicle control (protein LMJF.24.1510, IGE-DEPENDENT HISTAMINE-RELEASING FACTOR, PUTATIVE): 0.85 | fold change relative to vehicle control (protein LMJF.24.1630, SUCCINATE DEHYDROGENASE FLAVOPROTEIN, PUTATIVE): 1 | fold change relative to vehicle control (protein LMJF.24.2060, TRANSKETOLASE): 1.02 | fold change relative to vehicle control (protein LMJF.25.0010, BETA […] TRANSFERASE): 1.21 | fold change relative to vehicle control (protein LMJF.25.0910, CYCLOPHILIN A): 0.9 | fold change vs vehicle control (protein LMJF.25.1130 […] OXIDASE VII, PUTATIVE): 1.09 | fold change relative to vehicle control (protein LMJF.25.1180, ATPASE BETA SUBUNIT, PUTATIVE): 1.06 | fold change vs vehicle control (protein LMJF.25.1610 HY[…], CONSERVED): 1.08 | fold change vs vehicle control (protein LMJF.25.1620 HYPOTHETICAL PROTEIN, CONSERVED): 0.99 | fold change (protein LMJF.25.2340 SERINE/THREONINE-PROTEIN KINASE, PUTATIVE,PROTEIN KINASE, PUTATIVE): 0.83 | fold change relative to vehicle control (protein LMJF.26.0630, HY[…], CONSERVED): 1.11 | fold change vs vehicle control (protein LMJF.26.1240 HEAT SHOCK PROTEIN 70-RELATED PROTEIN): 1.06 | fold change (protein LMJF.26.1710 […] OXIDASE SUBUNIT V, PUTATIVE): 1.03 | fold change vs vehicle control (protein LMJF.26.2480 CDP-DIACYLGLYCEROL--INOSITOL 3-[…], PUTATIVE): 1.06 | fold change vs vehicle control (protein LMJF.26.2560 HYPOTHETICAL PROTEIN, CONSERVED): 0.94 | fold change vs vehicle control (protein LMJF.27.0190 PROTEASOME ALPHA 7 SUBUNIT, PUTATIVE): 0.97 | fold change (protein LMJF.27.0650 HY[…], CONSERVED): 1.07 | fold change (protein LMJF.27.0700 HYPOTHETICAL PROTEIN, CONSERVED): 1.67 | fold change vs vehicle control (protein LMJF.27.0760 GTP-binding protein homologue): 0.78 | fold change vs vehicle control (protein LMJF.27.1060 CYSTEINE DESULFURASE, PUTATIVE): 0.93 | fold change vs vehicle control (protein LMJF.27.1110 MIT[…] BINDING PROTEIN 1,GBP21, MRP1): 1.07 | fold change (protein LMJF.27.1250 HYPOTHETICAL PROTEIN, CONSERVED (Serine-threonine kinase receptor-associated protein, putative)): 0.97 | fold change relative to vehicle control (protein LMJF.27.1390, 60S ACIDIC RIBOSOMAL SUBUNIT PROTEIN, PUTATIVE): 1.05 | fold change (protein LMJF.27.1460 PROTEASOME REGULATORY NON-ATP-ASE SUBUNIT 3, PUTATIVE): 0.87
